From PMC7901646, “Pyrrolo[2′,3′:3,4]cyclohepta[1,2-d][1,2]oxazoles, a New Class of Antimitotic Agents Active against Multiple Malignant Cell Types” (Journal of Medicinal Chemistry, 2020)
Where two headings read alike, the source gives them in different places.

Experiments:
HeLa cells = experiment: Flow cytometric cell cycle distribution; type: cell-based; details: 24 h
Protocol: To evaluate the effects of compounds 63, 66, and 75 on cell cycle progression, we first treated HeLa cells for 24 h.The cells were then labeled with propidium iodide (PI) and analyzed by flow cytometry. As shown in Figure 5 (panel B), compound 66 induced arrest of the cell cycle in the G2/M phase.
5 ×10^5 HeLa cells were treated with different concentrations of the test compounds for 24 h. After the incubation period, the cells were collected, centrifuged, and fixed with ice-cold ethanol (70%). The cells were treated with lysis buffer containing RNase A and 0.1% Triton X-100 and stained with PI. Samples were analyzed on a Cytomic FC500 flow cytometer (Beckman Coulter). DNA histograms were analyzed using MultiCycle for Windows (Phoenix Flow Systems).

[1] = tested on: human peripheral blood lymphocytes stimulated with PHA; experiment: Cytotoxicity in PHA-stimulated PBLs (MTT); type: cell-based; details: Lymphocyte, 72 h, mean ± SEM, three experiments, read-out: GI50 PBLPHA
Protocol: (§1) PBLs were obtained from human peripheral blood (leucocyte rich plasma-buffy coats) from healthy volunteers using the Lymphoprep (Fresenius KABI Norge AS) gradient density centrifugation.
(§2) After extensive washing, cells were resuspended (1.0 × 10^6 cells/mL) in RPMI-1640 with 10% fetal bovine serum and incubated overnight. For cytotoxicity evaluations in proliferating PBL cultures, nonadherent cells were resuspended at 5 × 10^5 cells/mL in growth medium, containing 2.5 μg/mL PHA (Irvine Scientific). Different concentrations of the test compounds were added, and viability was determined 72 h later by the MTT test. For cytotoxicity evaluations in resting PBL cultures, nonadherent cells were resuspended (5 × 10^5 cells/mL) and treated for 72 h with the test compounds.

[2] = tested on: human peripheral blood lymphocytes not stimulated with PHA; experiment: Cytotoxicity in resting PBLs (MTT); type: cell-based; details: Lymphocyte, 72 h, mean ± SEM, three experiments, read-out: GI50 PBLresting
Protocol: as §1, §2

OVCAR-4 = experiment: NCI-60 screen; type: cell-based; details: Homo sapiens, Ovarian Cancer
Protocol: (§3) All the synthesized compounds 51–76 were tested at a 10^–5 M concentration for their antitumor activity on the full NCI-60 panel comprising cancer cell lines derived from nine human cancer cell types (leukemia, non-small-cell lung, colon, central nervous system, melanoma, ovarian, renal, prostate, and breast).[50]

A549/ATCC = experiment: NCI-60 screen; type: cell-based; details: Homo sapiens, Non-Small-Cell Lung Cancer
Summary of the method: (§4)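 Each compound is applied at one concentration, 10^–5 M, to the nine-tissue NCI-60 human cancer cell line panel, and growth-inhibitory activity is recorded per line.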

MALME-3M = experiment: NCI-60 screen; type: cell-based; details: Homo sapiens, Melanoma
Summary of the method: as §4

T-47D = experiment: NCI-60 screen; type: cell-based; details: Homo sapiens, T47D; Breast Cancer
Summary of the method: as §4

MDA-MB-468 = experiment: NCI-60 screen; type: cell-based; details: Homo sapiens, Breast Cancer
Summary of the method: as §4

OVCAR-8 = experiment: NCI-60 screen; type: cell-based; details: Homo sapiens, Ovarian Cancer
Summary of the method: as §4

BT-549 = experiment: NCI-60 screen; type: cell-based; details: Homo sapiens, Breast Cancer
Summary of the method: as §4

SNB-75 = experiment: NCI-60 screen; type: cell-based; details: Homo sapiens, CNS Cancer
Summary of the method: as §4

OVCAR-5 = experiment: NCI-60 screen; type: cell-based; details: Homo sapiens, Ovarian Cancer
Protocol: as §3

SK-MEL-28 = experiment: NCI-60 screen; type: cell-based; details: Homo sapiens, Melanoma
Summary of the method: as §4

SN12C = experiment: NCI-60 screen; type: cell-based; details: Homo sapiens, Renal Cancer
Summary of the method: as §4

UO-31 = experiment: NCI-60 screen; type: cell-based; details: Homo sapiens, Renal Cancer
Summary of the method: as §4

CCRF-CEM = experiment: NCI-60 screen; type: cell-based; details: Homo sapiens, Leukemia
Summary of the method: as §4

SK-MEL-2 = experiment: NCI-60 screen; type: cell-based; details: Homo sapiens, Melanoma
Summary of the method: as §4

NCI-H226 = experiment: NCI-60 screen; type: cell-based; details: Homo sapiens, Non-Small-Cell Lung Cancer
Summary of the method: as §4

RPMI-8226 = experiment: NCI-60 screen; type: cell-based; details: Homo sapiens, Leukemia
Summary of the method: as §4

HOP-62 = experiment: NCI-60 screen; type: cell-based; details: Homo sapiens, Non-Small-Cell Lung Cancer
Summary of the method: as §4

786–0 = experiment: NCI-60 screen; type: cell-based; details: Homo sapiens, Renal Cancer
Summary of the method: as §4

HCC-2998 = experiment: NCI-60 screen; type: cell-based; details: Homo sapiens, Colon Cancer
Summary of the method: as §4

RXF 393 = experiment: NCI-60 screen; type: cell-based; details: Homo sapiens, Renal Cancer
Summary of the method: as §4

SNB-19 = experiment: NCI-60 screen; type: cell-based; details: Homo sapiens, CNS Cancer
Summary of the method: as §4

HOP-92 = experiment: NCI-60 screen; type: cell-based; details: Homo sapiens, Non-Small-Cell Lung Cancer
Summary of the method: as §4

SF-539 = experiment: NCI-60 screen; type: cell-based; details: Homo sapiens, CNS Cancer
Summary of the method: as §4

UACC-62 = experiment: NCI-60 screen; type: cell-based; details: Homo sapiens, Melanoma
Summary of the method: as §4

HCT-116 = experiment: NCI-60 screen; type: cell-based; details: Homo sapiens, Colon Cancer
Summary of the method: as §4

MDA-MB-231/ATCC = experiment: NCI-60 screen; type: cell-based; details: Homo sapiens, Breast Cancer
Protocol: as §3

HS 578T = experiment: NCI-60 screen; type: cell-based; details: Homo sapiens, Breast Cancer
Summary of the method: as §4

[3] = tested on: NCI-60 panel of human cancer cell lines; experiment: NCI in vitro human tumor cell line screening, full panel; type: cell-based; details: for MG_MID (mean graph midpoint): arithmetic mean for all tested cancer cell lines
From the text: on the full NCI-60 panel comprising cancer cell lines derived from nine human cancer cell types (leukemia, non-small-cell lung, colon, central nervous system, melanoma, ovarian, renal, prostate, and breast).[50]

bovine brain tubulin = bovine brain tubulin (Bos taurus, UniProt P81947+Q6B856); experiment: Inhibition of tubulin assembly (turbidimetry); type: biochemical; details: 9 μM (0.9 mg/mL) tubulin, 20 min at 30 °C; read-out: inhibition of tubulin assembly IC50 ± SD
Sequence of bovine brain tubulin (Q6B856 whole entry): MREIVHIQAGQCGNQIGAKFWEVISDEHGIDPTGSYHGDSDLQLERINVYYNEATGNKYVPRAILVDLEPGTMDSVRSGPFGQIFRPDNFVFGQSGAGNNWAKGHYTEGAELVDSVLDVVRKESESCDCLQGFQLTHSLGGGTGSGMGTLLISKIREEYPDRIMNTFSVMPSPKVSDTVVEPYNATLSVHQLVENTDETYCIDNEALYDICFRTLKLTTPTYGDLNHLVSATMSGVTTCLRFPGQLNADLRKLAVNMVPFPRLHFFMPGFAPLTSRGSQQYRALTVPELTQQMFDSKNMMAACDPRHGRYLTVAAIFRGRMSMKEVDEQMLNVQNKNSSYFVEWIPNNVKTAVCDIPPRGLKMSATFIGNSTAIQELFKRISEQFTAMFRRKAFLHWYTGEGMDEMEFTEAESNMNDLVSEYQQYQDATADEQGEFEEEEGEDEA
Sequence of bovine brain tubulin (P81947 whole entry): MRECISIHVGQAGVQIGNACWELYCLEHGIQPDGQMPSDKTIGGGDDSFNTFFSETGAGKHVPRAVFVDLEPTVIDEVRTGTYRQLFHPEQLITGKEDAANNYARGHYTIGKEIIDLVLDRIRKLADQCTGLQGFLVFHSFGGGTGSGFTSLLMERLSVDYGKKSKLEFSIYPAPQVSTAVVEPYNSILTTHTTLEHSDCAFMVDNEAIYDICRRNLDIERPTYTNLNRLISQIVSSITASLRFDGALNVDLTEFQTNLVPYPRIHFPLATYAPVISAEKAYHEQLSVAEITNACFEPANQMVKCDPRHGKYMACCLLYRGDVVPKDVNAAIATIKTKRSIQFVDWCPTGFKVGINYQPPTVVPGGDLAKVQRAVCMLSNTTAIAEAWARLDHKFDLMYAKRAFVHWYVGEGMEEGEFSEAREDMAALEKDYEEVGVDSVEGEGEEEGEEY

tubulin colchicine site = tubulin colchicine site (Bos taurus, UniProt P81947+Q6B856); experiment: Inhibition of [3H]colchicine binding to tubulin; details: read-out: inhibition of colchicine binding % inhibition ± SD
Sequence of tubulin colchicine site (Q6B856 whole entry): as the sequence (Q6B856 whole entry) above
Sequence of tubulin colchicine site (P81947 whole entry): as the sequence (P81947 whole entry) above
Protocol: Reaction mixtures in the assembly assay contained 9 μM (0.9 mg/mL) tubulin in the assembly assay, and in the colchicine assay they contained 0.5 μM tubulin, 5.0 μM [^3H]colchicine, and 5.0 μM inhibitor.
Analysis of effects on tubulin polymerization was performed by turbidimetry at 350 nm in recording spectrophotometers equipped with electronic temperature controllers as described in detail elsewhere.[71] […] The binding of [^3H]colchicine to tubulin was perfomed as described in detail previously[72] except that the tubulin concentration was reduced from 0.1 mg/mL to 0.05 mg/mL and only one, instead of two, DEAE-cellulose filter was used for each reaction mixture.

Row | Compound | concentration at which G2/M arrest first occurred (HeLa cells) [µM] | GI50 [1] [nM] | GI50 [2] [nM] | GI50 (OVCAR-4) [nM] | GI50 (A549/ATCC) [nM] | GI50 (MDA-MB-468) [nM] | GI50 (OVCAR-8) [nM] | GI50 (BT-549) [nM] | GI50 (SNB-75) [nM] | GI50 (OVCAR-5) [nM] | GI50 (SK-MEL-28) [nM] | GI50 (SN12C) [nM] | GI50 (UO-31) [nM] | GI50 (CCRF-CEM) [nM] | GI50 (SK-MEL-2) [nM] | GI50 (NCI-H226) [nM] | GI50 (RPMI-8226) [nM] | GI50 (786–0) [nM] | GI50 (HCC-2998) [nM] | GI50 (RXF 393) [nM] | also measured
1 | CCOC(=O)c1cc2c(n1Cc1cccc(OC)c1)-c1oncc1CCC2 [Compound 63, Ethyl 9-(3-Methoxybenzyl)-4,5,6,9-tetrahydropyrrolo[2′,3′:3,4]cyclohepta[1,2-d][1,2]oxazole-8-carboxylate] | 1 | > 100000 | > 100000 | 18700 | 760 | 340 | 3130 | 980 | 1600 | 5940 | 5120 | 3510 | 3370 | 2170 | 560 | 21000 | 1890 | 6740 | 4180 | 670 | GI50 (MALME-3M): 890 nM; GI50 (T-47D): 2000 nM; GI50 (HOP-62): 4340 nM; GI50 (SNB-19): 8230 nM; GI50 (HOP-92): 4210 nM; GI50 (SF-539): 1140 nM; GI50 (UACC-62): 510 nM; GI50 (HCT-116): 470 nM; GI50 (MDA-MB-231/ATCC): 1840 nM; GI50 (HS 578T): 1600 nM; GI50 ([3]; Homo sapiens, full NCI panel, five concentrations 10^–4–10^–8 M, read-out: GI50 (concentration that inhibits 50% net cell growth), range over panel): 150 to 18700 nM; MG_MID (mean graph midpoint) ([3]; full NCI panel): 1.45 µM; IC50 (bovine brain tubulin): 6300 ± 60 nM
2 | CCOC(=O)c1cc2c(n1Cc1cc(OC)cc(OC)c1)-c1oncc1CCC2 [Compound 66, Ethyl 9-(3,5-Dimethoxybenzyl)-4,5,6,9-tetrahydropyrrolo[2′,3′:3,4]cyclohepta[1,2-d][1,2]oxazole-8-carboxylate] | 0.125 | > 100000 | > 100000 | 13400 | 60 | 30 | 80 | 1720 | 30 | 180 | 90 | 70 | 50 | 50 | 40 | 7980 | 50 | 50 | 230 | 20 | cells arrested in G2/M (HeLa cells; 0.5 μM): over 80%; GI50 (SNB-19): 150 nM; GI50 (SF-539): 30 nM; GI50 (UACC-62): 70 nM; GI50 (HCT-116): 40 nM; GI50 (MDA-MB-231/ATCC): 240 nM; GI50 (HS 578T): 40 nM; inhibition at 5 µM (tubulin colchicine site): 62 ± 2%; GI50 ([3]; Homo sapiens, prostate subpanel, read-out: GI50): 40 nM; MG_MID (mean graph midpoint) ([3]; full NCI panel): 0.08 µM; mean values of subpanel ([3]; colon and CNS cancers): 0.06 µM; GI50 ([3]; full NCI panel, five concentrations 10^–4–10^–8 M, read-out: GI50 (concentration that inhibits 50% net cell growth), range over panel): 10 to 13400 nM; calculated MG_MID value for each subpanel ([3]; melanoma, prostate and renal subpanels): 0.04 µM; IC50 (bovine brain tubulin): 2600 ± 30 nM
